Test results taken from patent US9782398B2, “Pharmaceutical compositions comprising an antipsychotic drug and a VMAT2 inhibitor and uses thereof” (NEUROCRINE BIOSCIENCES, INC., priority 2014, dated 2017).
“Also recorded” adds a separate entry of the source.

Test system: Male Wistar rats
Assay: Conditioned avoidance response (CAR) test of antipsychotic activity
Assay type: in vivo, rat
Settings: for ED50: Rattus norvegicus, ip, read-out: ED50 (escape response), dose required to produce 50% of the maximum response; for dose of compound required to produce 8 escapes / dose of compound required to produce 5 escapes: from fitted line
From the text: In the CAR paradigm, a rat is trained in a two chamber shuttle box to respond to a conditioned stimulus (auditory) by negative reinforcement. If the animal fails to move to the other chamber upon presentation of an auditory stimulus, a mild foot shock is applied to the side where the rat is located. The rat learns to avoid the mild foot shock by moving to the other chamber upon initiation of the auditory signal, termed a conditioned avoidance response. Crossing to the other chamber during administration of the shock is termed an escape response. If a rat fails to move to the other chamber even upon administration of the foot shock, the rat is considered to have an escape failure.
Rats were trained every day for 3 to 4 weeks. In the training session, rats were placed in the CAR two-way shuttle box and the training period of 20 trials ensued. A trial consisted of a 10-sec presentation of an 80 dB white noise followed by a scrambled 0.6 mA foot shock lasting up to 20 sec. The inter-trial interval ranged from 20-60 sec. The rat learned to avoid shock by moving from one compartment to the other when the conditioned stimulus was presented (a conditioned avoidance response). A rat was deemed sufficiently trained if it avoided the shock when presented with the conditioned stimulus at least 19 times out of the 20 trials.
On test day, trained animals were acclimated in the test room for 30 minutes prior to testing. They were then dosed with compound and placed in the CAR two-way shuttle box. In the test, 20 trials were performed on each rat. In each trial the conditioned stimulus was applied (10-sec presentation of 80 dB white noise), followed by the foot shock (a scrambled 0.6 mA foot shock lasting up to 20 sec). If the animal moved to the other chamber on presentation of the conditioned stimulus, it was scored as a conditioned avoidance response. If it moved upon presentation of the foot shock, it was scored as an escape. […] Antipsychotic efficacy is evident by an increase in the number of escapes. Data were analyzed by analysis of variance (ANOVA) followed by post-hoc comparisons with the Bonferroni Test when appropriate. An effect is considered significant if p<0.05. Outliers defined as two standard deviations above or below the mean were detected and were removed from all analysis. Results are reported as mean±SEM for number of escapes.
Animals: Male Wistar rats from Harlan (Indianapolis, Ind.) were used in the study. Upon receipt, rats were assigned unique identification numbers and were group housed with 3 rats per cage in polycarbonate cages with micro-isolator filter tops. All rats were examined, handled, and weighed prior to initiation of the study to assure adequate health and suitability. The rats were maintained at 12/12 light/dark cycle with lights on at 6:00 A.M. The room temperature was maintained between 20 and 23° C. with a relative humidity maintained around 50%. Chow and water were provided ad libitum for the duration of the study. For each test, animals were randomly assigned across treatment groups. Each treatment group contained 10 animals at time of testing.
Test Compounds: Risperidone (0.03, 0.1, 0.3, and 1 mg/kg) was dissolved in 10% DMSO and administered i.p. 30 min prior to testing at a dose volume of 1 ml/kg. […] The vehicle control group received 10% DMSO (i.p., 30 min pretreatment, 1 ml/kg) immediately followed by administration of sterile water (p.o., 1 ml/kg).
Test Compounds: Olanzapine (0.3, 0.6, 1 and 3 mg/kg) was dissolved in 10% DMSO and administered i.p. 30 min prior to testing at a dose volume of 1 ml/kg.
10% DMSO (i.p., 30 min pretreatment, 1 ml/kg) immediately followed by administration of sterile water (p.o., 1 ml/kg) was used as the vehicle control group.
Test Compounds: Risperidone (0.1, 0.3, and 1 mg/kg) was dissolved in 10% DMSO and administered i.p. 30 min prior to testing at a dose volume of 1 ml/kg.

[1] = combination with Compound 5-1 0.3 mg/kg vs risperidone singly, rat
[2] = combination with R,R,R-DHTBZ 0.15 mg/kg vs risperidone singly, rat
[3] = risperidone i.p. administered singly, rat
[4] = combination with R,R,R-DHTBZ 0.15 mg/kg vs olanzapine singly, rat
[5] = olanzapine i.p. administered singly, rat

COc1cc2c(cc1OC)[C@H]1C[C@@H](CO)[C@H](CC(C)C)CN1CC2 [Compound 5-1, [(2R,3S,11bR)-9,10-Dimethoxy-3-(2-methylpropyl)-1H,2H,3H,4H,6H,7H,11bH-pyrido[2,1-a]isoquinolin-2-yl]methanol]
number of escapes compared to vehicle (Compound 5-1 0.3 mg/kg p.o. administered singly, 60 min prior to testing, rat, 0.3 mg/kg): did not result in changes from the vehicle results; also recorded: showed no antipsychotic activity; also recorded: did not increase

Cc1nc2n(c(=O)c1CCN1CCC(c3noc4cc(F)ccc34)CC1)CCCC2 [risperidone]
ED50: 0.14 mg/kg
decrease of risperidone dose required to produce 8 escapes [1]: approximately 7 fold
reduction of the risperidone dose [1]: 86%
decrease of ED50 of risperidone [2]: approximately 6 fold
reduction of the risperidone dose [2]: 83%
number of escapes compared to vehicle (risperidone 0.1 mg/kg i.p. administered singly, 30 min prior to testing, rat): did not result in changes from the vehicle results; also recorded: did not increase
dose necessary to show antipsychotic efficacy in the CAR paradigm [3]: 0.3 mg/kg
dose of compound required to produce 8 escapes [3]: 0.26 mg/kg
dose of compound required to produce 8 escapes (risperidone i.p. in combination with Compound 5-1 0.3 mg/kg p.o., rat): 0.038 mg/kg
doses of risperidone resulting in antipsychotic activity (risperidone i.p. with addition of Compound 5-1 0.3 mg/kg p.o., rat): 0.1 mg/kg

COc1cc2c(cc1OC)[C@H]1C[C@@H](O)[C@H](CC(C)C)CN1CC2 [R,R,R-DHTBZ, (2R,3R,11bR)-3-isobutyl-9,10-dimethoxy-1,3,4,6,7,11b-hexahydro-2H-pyrido[2,1-a]isoquinolin-2-ol]
number of escapes compared to vehicle (R,R,R-DHTBZ 0.15 mg/kg p.o. administered singly, 30 min prior to testing, rat): did not increase; also recorded: did not result in changes from the vehicle results
number of escapes compared to vehicle (R,R,R-DHTBZ 0.15 mg/kg p.o. administered singly, 30 min prior to testing, rat, listed as R,R,R DHTBZ): showed no antipsychotic activity

Cc1cc2c(s1)Nc1ccccc1N=C2N1CCN(C)CC1 [olanzapine]
ED50: 1.2 mg/kg
reduction of the olanzapine dose (combination with Compound 5-1 0.3 mg/kg vs olanzapine singly, rat): 80%
decrease of ED50 of olanzapine [4]: approximately 2 fold
reduction of the olanzapine dose [4]: 50%
dose necessary to show antipsychotic efficacy in the CAR paradigm [5]: 1 mg/kg
dose of compound required to produce 5 escapes [5]: 0.93 mg/kg
dose of compound required to produce 5 escapes (olanzapine i.p. in combination with Compound 5-1 0.3 mg/kg p.o., rat): 0.18 mg/kg
dose of olanzapine resulting in antipsychotic activity (olanzapine i.p. with addition of Compound 5-1 0.3 mg/kg p.o., rat): 0.6 mg/kg
dose of olanzapine resulting in antipsychotic activity (olanzapine i.p. with addition of R,R,R-DHTBZ 0.15 mg/kg p.o., rat): 0.6 mg/kg
